Assay results reported in PMC4887995, “Small molecule dual-inhibitors of TRPV4 and TRPA1 for attenuation of inflammation and pain” (Scientific Reports, 2016).

Columns and labels:
[1] = test system: N2a cells; assay: Cell viability (resazurin) in N2a cells; format: cell-based
Method: Figure 6 Cellular toxicity studies of compounds 16-8 and 16-19. N2a cells were subjected to increasing concentrations of compounds 16-8 and 16-19, resulting cell viability was analyzed for the next 48 h. (A) Time course of cell viability in the presence of various concentrations of 16-8. […] Representative result of 2 independent experiments.
N2a cells were cultured in 96 well plates for 24–48 h. Cell viability studies relied on metabolic capability monitored with the indicator dye resazurin. Its reduction to resorufin (indicated by color change dark blue to pink) was monitored over time. Changes in absorbance at λ = 570 nm were recorded using a microplate reader (Molecular Devices). […] Eight replicate cultures per experimental point were studied.

[2] = Preliminary in-vivo cardiac, renal and hepatic toxicity; design: species or system mouse; conditions: 10 mg/kg i.p., vs vehicle; for heart rate (EKG): over 1 h at the 6 h time-point
Method: Mice were treated i.p. with compounds 16-8 and 16-19 (10 mg/kg). Hepatic and renal integrity were analyzed by alanine amino-transferase- and creatinine assays (Sigma), both relying on measurement of absorbance at λ = 570 nm in 96-well micro-titerplates. 8 technical replicates per animal were performed.
For heart rate assessment in mice treated with 16-8 and 16-19, animals were fitted with two electrodes, one to the ear, via clip, one to the rib-cage, using firm adhesive. Heart rate was monitored and analyzed using axoscope and clampfit 9.2 software (Molecular Devices)

[3] = biological target: TRPV1 (Mus musculus, UniProt Q704Y3); assay: Ca++ imaging in N2a cells over-expressing TRPV1 (capsaicin); conditions: 5 μM
TRPV1, sequence (Q704Y3 whole entry): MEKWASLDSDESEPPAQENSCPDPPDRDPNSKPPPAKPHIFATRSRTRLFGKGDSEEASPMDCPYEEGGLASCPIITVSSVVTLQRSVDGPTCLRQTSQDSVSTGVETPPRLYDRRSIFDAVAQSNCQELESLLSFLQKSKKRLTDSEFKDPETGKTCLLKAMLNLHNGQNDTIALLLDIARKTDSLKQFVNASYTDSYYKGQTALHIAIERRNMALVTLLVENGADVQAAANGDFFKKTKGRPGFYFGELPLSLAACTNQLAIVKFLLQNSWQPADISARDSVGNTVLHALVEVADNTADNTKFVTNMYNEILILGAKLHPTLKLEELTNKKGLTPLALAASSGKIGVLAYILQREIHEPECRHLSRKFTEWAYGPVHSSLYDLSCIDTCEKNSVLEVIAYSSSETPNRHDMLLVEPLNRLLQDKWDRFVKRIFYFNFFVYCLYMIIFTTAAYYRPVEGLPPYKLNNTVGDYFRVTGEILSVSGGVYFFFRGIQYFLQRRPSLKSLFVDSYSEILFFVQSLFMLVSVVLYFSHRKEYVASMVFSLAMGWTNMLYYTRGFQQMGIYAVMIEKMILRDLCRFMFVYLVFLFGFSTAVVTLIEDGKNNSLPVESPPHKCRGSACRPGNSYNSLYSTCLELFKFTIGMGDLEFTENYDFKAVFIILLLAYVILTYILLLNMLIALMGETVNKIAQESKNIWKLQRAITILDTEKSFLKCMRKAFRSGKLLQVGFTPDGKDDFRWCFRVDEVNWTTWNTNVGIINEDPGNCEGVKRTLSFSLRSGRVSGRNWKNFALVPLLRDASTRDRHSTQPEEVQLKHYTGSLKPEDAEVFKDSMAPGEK
Method: (A) Specificity vs TRPV1-3. […] Mean±SEM is shown, ≥100 cells per condition. […] Plot generated from averaged peak ∆Ca^++ concentration of ≥75 cells per data-point.
N2a cells were used for directed expression of TRP ion channels as described previously[13]. […] All other channels were native channels from mouse, eGFP was co-transfected. […] Ca^++ imaging was performed as described previously[13][14][34].

[4] = biological target: TRPV4 (Rattus norvegicus, UniProt Q9ERZ8); assay: Patch-clamp recording of TRPV4-mediated currents in TRPV4-GFP+ N2a cells; format: cell-based; design: expressed in transfected cells; host or cells: N2a (mouse neuroblastoma) cells; conditions: 5 μM, 5 min pre-incubation, GSK101 5 nM, current densities at −100mV/+100 mV
TRPV4, sequence (Q9ERZ8 whole entry): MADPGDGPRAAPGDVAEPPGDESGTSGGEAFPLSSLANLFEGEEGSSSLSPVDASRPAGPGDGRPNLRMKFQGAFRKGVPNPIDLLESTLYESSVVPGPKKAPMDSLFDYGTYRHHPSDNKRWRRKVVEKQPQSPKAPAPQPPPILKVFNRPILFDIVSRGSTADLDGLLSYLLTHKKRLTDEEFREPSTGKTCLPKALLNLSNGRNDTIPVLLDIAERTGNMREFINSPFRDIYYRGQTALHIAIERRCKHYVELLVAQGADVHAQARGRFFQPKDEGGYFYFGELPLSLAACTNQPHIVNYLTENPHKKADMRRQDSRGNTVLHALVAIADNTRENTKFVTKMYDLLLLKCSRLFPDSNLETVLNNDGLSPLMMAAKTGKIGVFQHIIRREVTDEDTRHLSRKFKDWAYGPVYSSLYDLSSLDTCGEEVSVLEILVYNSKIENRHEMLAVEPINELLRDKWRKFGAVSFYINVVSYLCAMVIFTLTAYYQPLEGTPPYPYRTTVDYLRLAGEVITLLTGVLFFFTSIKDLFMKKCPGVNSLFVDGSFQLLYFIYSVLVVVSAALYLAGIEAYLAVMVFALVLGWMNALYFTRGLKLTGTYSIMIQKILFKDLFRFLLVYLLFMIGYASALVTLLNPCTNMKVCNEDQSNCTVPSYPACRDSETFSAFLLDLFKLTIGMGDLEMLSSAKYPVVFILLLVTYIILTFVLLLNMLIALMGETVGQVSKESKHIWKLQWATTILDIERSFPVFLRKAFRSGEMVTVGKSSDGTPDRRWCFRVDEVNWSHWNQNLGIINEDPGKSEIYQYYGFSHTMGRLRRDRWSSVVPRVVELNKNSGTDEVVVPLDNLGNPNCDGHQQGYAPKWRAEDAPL
Method: Figure 3 TRPV4 channel inhibition by compounds 16-8 and 16-19 – patch-clamp e-phys. (A) Current-voltage relationship of TRPV4-mediated currents after activation with 5 nM GSK101. Recordings were performed in TRPV4-GFP+ N2a cells. The representative traces represent an average of ≈12 sweeps. In all experiments, cells were pre-incubated with the respective compound (5 μM) for 5 minutes.
Heterologously transfected N2a cells were subjected to patch clamp electrophysiological recordings. Briefly, 24 h after transfection cells were prewashed with extracellular fluid (ECF) which contained (in mM) 1 MgCl2, 10 Glucose, 10 HEPES, 145 NaCl and 2 CaCl2 (pH 7.4, 310mOsM). Cells were then incubated with or without TRPV4 inhibitors in ECF for 5 min before whole cell recording. Cover slips were transferred to a recording chamber mounted on the stage of a Leica inverted microscope that was equipped with fluorescent filters. Transfected cells were identified before patching by their green florescent color. Cells were patched with a 2.5–3.0 MΩ glass electrode pulled from borosilicate glass capillaries using pipette puller (Sutter instruments). […] Whole cell currents were recorded using pclamp 9.2 software and Axopatch 200B amplifier (Molecular Devices). […] Capacitance was monitored throughout the experimental recordings. […]

[5] = test system: formalin-evoked trigeminal irritant pain (TRPA1 contribution); assay: Trigeminal formalin irritant pain model, Trpv4-/- mice; format: in vivo, mouse; conditions: 10 mg/kg i.p.; for late-phase pain behavior: vs vehicle
Method: Figure 7 16-8 and 16-19 effectively attenuate formalin-evoked trigeminal irritant pain. (A) Time-course of nocifensive behavior in WT mice following whisker-pad injection of 4% formalin. The mice were pre-injected (i.p., 10 mg/kg; 15 min before formalin) with GSK205, 16-8 or 16-19. Note effective reduction of nocifensive behavior in the late “neural” phase by compounds 16-8, 16-19, not by GSK205. (B) Cumulative response binned into 3 phases: acute phase (0–5 min), interphase (5–15 min), and late “neural” phase (15–45 min). […] (C) As in (A), but also including Trpv4^−/− mice. Compounds were applied i.p. 15 min before formalin challenge, at 10 mg/kg except established TRPA1 blocker, A967079 (25 mg/kg). Previously-established attenuated nocifensive behavior in early and late phase in Trpv4^−/− mice was recapped, which was reduced further by TRPA1 blocker, A967079. (D) As in (B), plus inclusion of Trpv4^−/− mice. Robust effects of TRPA1-blocker, A967079, were mimicked equi-potently by 16-8 and 16-19 for early phase, and by 16-8 for late phase, partially by 16-19 for late phase. (A,C) show averaged behavioral metrics per time-point, bars in (B,D) represent mean ± SEM; for (D) ^*P < 0.05; ^#P < 0.005, one-way ANOVA; for all panels n = 5–8 mice/group. […] We observed significant residual irritant-pain behavior in all phases of the formalin model in Trpv4^−/− mice, consistent with our previous report[13] (Fig. 7C,D). […] A reference TRPA1-inhibitory compound, A967079, was used at 25 mg/kg body weight as a positive control to inhibit TRPA1, based on a previous report. Reduction of pain behavior in Trpv4^−/− mice was striking, more than 50% in the late neural phase. […] We conclude that compound 16-8 also functions as a potent TRPA1-inhibitor in an in-vivo irritant pain model specifically designed to assess the contribution of TRPA1 to trigeminal irritant pain, and at least as potent as an established reference TRPA1-antagonistic compound. Implementation of this model was conducted as described previously. Video-taped nocifensive behavior was assessed by investigators blinded to genotype and treatment.

Compound | cellular toxicity vs inhibitory potency against TRPV4/TRPA1, factor [1] | cell viability ([1]; increasing concentrations, followed for 48 h) | heart rate (EKG) [2] | serum alanine-amino-transferase (ALT) [2] | serum creatinin [2] | inhibition of TRPV1 [3] | attenuation of TRPV4-mediated currents [4] | immediate-phase pain behavior [5] | late-phase pain behavior [5]
CN(CCc1ccc(Nc2nc(-c3ccccc3)cs2)cc1)Cc1ccccc1 [16-8] | 50–100 | clear reduction at 40 and 80 μM | no and did not detect differences and changes | not significantly elevated | not significantly elevated | did not inhibit | significantly increased potency | virtually eliminated | strikingly reduced
CCN(CCc1ccc(Nc2nc(-c3ccccc3)cs2)cc1)Cc1ccccc1 [16-19] | 50–100 |  | no and did not detect differences and changes | not significantly elevated | not significantly elevated | did not inhibit | significantly increased potency | virtually eliminated | still significantly reduced
